# Results from patent US8481459B2, “Chemical inhibitors of ethylene biosynthesis” (Academia Sinica, priority 2010, dated 2013).
# System: gene expression in etiolated eto1-4 seedlings
# Experiment: Transcriptional profiling (ATH1 GeneChip microarray) of etiolated eto1-4 seedlings
# Type: in vivo, Arabidopsis thaliana
# Conditions: ratio eto1-4 treated to eto1-4 (no treatment)
# Description: For chemical treatments, seeds were sown on 0.5×MS agar medium supplemented with 10 μM chemicals (AVG, compounds 9393, 9370, and 7303) or DMSO (as control). Arabidopsis seeds were stratified in the dark at 4° C. for 4 days, then germinated in the dark for 3 days at 22° C. Approximately 2,000 etiolated seedlings of the wild type or eto1-4 were used to collect tissues for preparation of total RNA in each microarray experiment with Arabidopsis ATH1 GeneChip (Affymetrix). Extraction of RNA followed an established protocol (Chang, et al. (1993) Plant Mol. Biol. Rep. 11, 113-117). Total RNA (10 μg) was used to prepare biotinylated cRNA for hybridization to ATH1 GeneChip in the experiments disclosed herein. Experiments were repeated by 2 independent biological duplicates, and candidate genes present in both experiments were selected for further analysis. The MASS method was used for data analysis and normalization by all sample medium. Candidate genes were selected by the following criteria. First, genes with 1.5-fold differential expression between the wild type and eto1-4 were selected as the master gene pool, which was then used for comparison in treatments with AVG and individual exemplary compounds. Data were presented in hierarchical clustering and Venn diagram format. Agilent GeneSpring GX and Bioconductor software were used to analyze the expression profile data. Gene Ontology descriptions were generated by GeneSpring GX and further referred to the TAR GO database. Raw data are available in the GEO database (http://www.ncbi.nlm.nih.gov/geo) with Accession no. GSE20897.
# The filtered and normalized expression data set from 22810 probes on the ATH1 Genechip was used for hierarchical clustering of gene expression profiles for comparison between AVG and the exemplary invention compounds in eto1-4. It was identified that 1,446 genes show at least 1.5-fold difference in expression between the WT and eto1-4 and used them as the master gene pool for clustering analysis (FIG. 7A). […] These genes likely contribute to the etiolated phenotype of eto1-4 by responding to elevated endogenous ethylene. To determine whether the exemplary compounds have specific r overlapping functions with AVG to suppress the eto1-4 phenotype, genes that are regulated by individual exemplary invention compounds and AVG for Venn diagram analysis were clustered (FIG. 7B). More than 63% of genes (356/561 for compound 9393; 389/561 for compound 9370; 399/561 for compound 7303; FIG. 7B) with expression associated with AVG were co-regulated by the exemplary invention compounds, which indicates an overlap function in suppression of the ethylene phenotype in eto1-4. […] Next genes co-regulated by all of the exemplary invention compounds and AVG were examined by performing a clustering analysis using the co-regulated genes identified in FIG. 7B: 356 (compound 9393 vs AVG), 389 (compound 9370 vs AVG) and 399 genes (compound 7303 vs AVG). It was uncovered that 276 genes were co-regulated by all of the exemplary invention compounds and AVG (FIG. 7C and Table 2). On the basis of GO descriptions generated by Gene Spring GX and TAIR database, the 276 genes were divided into subgroups related to their biological functions (Table 2). […] In addition, stress- and pathogenesis-related genes were among the co-regulated genes, possibly because ethylene is involved in both biotic and abiotic stresses.
# Genes (1446 non-redundant loci) were selected by 1.5-fold differential expression between eto1-4 and WT as the master pool for analysis. These genes were used for comparison between chemical treatments by AVG and the exemplary invention compounds. The finalized 276 genes that are co-regulated by AVG and all of the exemplary invention compounds are shown. Locus ID also present in Nemhauser et al. (Nemhauser, et al. (2006) Cell 126, 467-475).
structure (smiles),measurement,value
COc1ccc(C2CC(=O)c3cnc(Nc4ccccc4)nc3C2)cc1 (centres unmarked) [Compound 7303],"Signal Fold Change AT3G14850, unknown biological function",0.13
same,Signal Fold Change AT3G15890 protein kinase,2.14
same,Signal Fold Change AT3G16450 jacalin lectin protein,3.13
same,Signal Fold Change AT3G16470 jacalin lectin protein,6.91
same,"Signal Fold Change AT3G16690, unknown biological function",4.80
same,"Signal Fold Change AT3G17680, unknown biological function",0.17
same,Signal Fold Change AT3G20130 cytochrome P450,1.89
same,Signal Fold Change AT3G21770 peroxidase 30,1.84
same,Signal Fold Change AT3G22620 lipid transfer protein,2.70
same,"Signal Fold Change AT3G23150 ethylene receptor, putative (ETR2)",0.18
same,"Signal Fold Change AT3G23800, unknown biological function",0.33
same,"Signal Fold Change AT3G24670, unknown biological function",0.38
same,Signal Fold Change AT3G25710 bHLH protein,2.51
same,Signal Fold Change AT3G25730 AP2-containing transcription factor,0.21
same,Signal Fold Change AT3G25980 mitotic spindle checkpoint protein,2.49
same,Signal Fold Change AT3G27580 protein kinase,0.46
same,"Signal Fold Change AT3G28290, unknown biological function",0.27
same,Signal Fold Change AT3G29250 short-chain dehydrogenase,20.57
same,"Signal Fold Change AT3G30775 proline oxidase, mitochondrial",4.43
same,Signal Fold Change AT3G43270 pectinesterase protein,0.33
same,"Signal Fold Change AT3G44820, response to light stimulus, phototropic-responsive NPH3 protein",2.99
same,Signal Fold Change AT3G44990 endo-xyloglucan transferase,0.21
same,Signal Fold Change AT3G45710 proton-dependent oligopeptide transport (POT) protein,4.30
same,Signal Fold Change AT3G46130 myb transcription factor (MYB48),2.20
same,Signal Fold Change AT3G46700 UDP-glucosyl transferase,7.33
same,"Signal Fold Change AT3G47210, unknown biological function",3.50
same,"Signal Fold Change AT3G47250, unknown biological function",5.15
same,Signal Fold Change AT3G49780 phytosulfokines 3 (PSK3),9.23
same,Signal Fold Change AT3G50660 steroid 22-alpha-hydroxylase,4.40
same,"Signal Fold Change AT3G51410, unknown biological function",0.21
same,"Signal Fold Change AT3G51970, unknown biological function",3.02
same,Signal Fold Change AT3G52180 protein tyrosine phosphatase,0.22
same,Signal Fold Change AT3G52920 expressed protein (defense response),3.88
same,"Signal Fold Change AT3G53540, unknown biological function",0.41
same,"Signal Fold Change AT3G56480, unknown biological function",2.86
same,Signal Fold Change AT3G58710 WRKY transcription factor,2.61
same,"Signal Fold Change AT3G59370, unknown biological function",3.33
same,Signal Fold Change AT3G59710 short-chain dehydrogenase,0.48
same,"Signal Fold Change AT3G59900, unknown biological function",0.39
same,"Signal Fold Change AT3G60520, unknown biological function",0.30
same,Signal Fold Change AT3G61160 shaggy-related protein kinase beta/ASK-beta (ASK2),5.02
same,Signal Fold Change AT4G00730 anthocyaninless2,0.54
same,"Signal Fold Change AT4G01410, unknown biological function",0.54
same,Signal Fold Change AT4G03140 short-chain dehydrogenase,0.23
same,"Signal Fold Change AT4G08300, unknown biological function",4.13
same,Signal Fold Change AT4G09570 calcium-dependent protein kinase,0.34
same,"Signal Fold Change AT4G10910, unknown biological function",4.49
same,Signal Fold Change AT4G11190 disease resistance-responsive protein,9.71
same,Signal Fold Change AT4G11280 ACC synthase 6,2.00
same,Signal Fold Change AT4G11310 cysteine proteinase,17.92
same,"Signal Fold Change AT4G12080, unknown biological function",2.09
same,Signal Fold Change AT4G12410 auxin-responsive protein,3.30
same,Signal Fold Change AT4G12480 lipid transfer protein,0.06
same,"Signal Fold Change AT4G13210, unknown biological function",0.27
same,Signal Fold Change AT4G15550 UDP-glucose:indole-3-acetate beta-D-glucosyltransferase,0.39
same,"Signal Fold Change AT4G15920, unknown biological function",23.20
same,Signal Fold Change AT4G17220 expressed protein (cytoskeleton organization and biogenesis),2.48
same,Signal Fold Change AT4G18340 glycosyl hydrolase,3.43
same,Signal Fold Change AT4G23410 senescence-associated protein,1.83
same,"Signal Fold Change AT4G25780, unknown biological function",9.00
same,Signal Fold Change AT4G26010 peroxidase,0.49
same,"Signal Fold Change AT4G28085, unknown biological function",3.16
same,"Signal Fold Change AT4G31000, unknown biological function",0.51
same,"Signal Fold Change AT4G32920, unknown biological function",2.81
same,"Signal Fold Change AT4G34560, unknown biological function",2.51
same,Signal Fold Change AT4G34760 auxin-responsive protein,0.22
same,Signal Fold Change AT4G35060 copper chaperone,3.90
same,"Signal Fold Change AT4G35150, unknown biological function",0.31
same,"Signal Fold Change AT4G36520, unknown biological function",2.99
same,Signal Fold Change AT4G37220 stress-responsive protein,15.33
same,"Signal Fold Change AT4G38690, signal transduction, 1-phosphatidylinositol",3.39
same,Signal Fold Change AT4G39210 ADP-glucose pyrophosphorylase,0.34
same,Signal Fold Change AT4G39800 inositol-3-phosphate synthase isozyme 1,2.69
same,"Signal Fold Change AT4G39840, unknown biological function",0.36
same,"Signal Fold Change AT5G01210, unknown biological function",0.37
same,"Signal Fold Change AT5G01300, unknown biological function",2.28
same,"Signal Fold Change AT5G02260, cell wall organization and biogenesis, expansin (EXP9)",0.23
same,Signal Fold Change AT5G02540 short-chain dehydrogenase,0.33
same,Signal Fold Change AT5G03160 DNAJ heat shock N-terminal domain-containing protein,2.24
same,"Signal Fold Change AT5G04080, unknown biological function",3.07
same,"Signal Fold Change AT5G05180, unknown biological function",1.98
same,"Signal Fold Change AT5G06200, unknown biological function",1.99
same,"Signal Fold Change AT5G08240, unknown biological function",2.56
same,Signal Fold Change AT5G08260 serine carboxypeptidase S10 protein,0.35
same,Signal Fold Change AT5G08370 alpha-galactosidase,3.99
same,Signal Fold Change AT5G09980 expressed protein (defense response),0.28
same,Signal Fold Change AT5G10720 sensory transduction histidine kinase,0.36
same,"Signal Fold Change AT5G11540, unknown biological function",6.69
same,"Signal Fold Change AT5G12170, response to cadmium ion, expressed protein",0.34
same,Signal Fold Change AT5G13870 endo-xyloglucan transferase,0.19
same,Signal Fold Change AT5G13910 AP2/EREBP-like transcription factor,0.40
same,Signal Fold Change AT5G14780 formate dehydrogenase,0.41
same,Signal Fold Change AT5G14920 gibberellin-regulated protein,0.33
same,"Signal Fold Change AT5G15290, unknown biological function",2.99
same,Signal Fold Change AT5G15530 biotin carboxyl carrier protein 2,0.43
same,Signal Fold Change AT5G15830 bZIP transcription factor protein,4.29
same,"Signal Fold Change AT5G18470, unknown biological function",0.24
same,Signal Fold Change AT5G18670 beta-amylase,0.63
same,"Signal Fold Change AT5G18860, unknown biological function",3.13
same,"Signal Fold Change AT5G18970, unknown biological function",3.98
same,Signal Fold Change AT5G19890 peroxidase,0.03
same,"Signal Fold Change AT5G19930, unknown biological function",1.84
same,Signal Fold Change AT5G20410 monogalactosyldiacylglycerol synthase,2.86
same,"Signal Fold Change AT5G22310, unknown biological function",0.46
same,Signal Fold Change AT5G22860 serine carboxypeptidase S28 protein,3.07
same,"Signal Fold Change AT5G23750, unknown biological function",4.93
same,"Signal Fold Change AT5G24870, unknown biological function",2.71
same,Signal Fold Change AT5G25140 cytochrome P450,6.66
same,Signal Fold Change AT5G25160 zinc finger (C2H2 type) protein,2.70
same,Signal Fold Change AT5G25190 ethylene-responsive element-binding protein,0.25
same,"Signal Fold Change AT5G34940, unknown biological function",0.44
same,"Signal Fold Change AT5G37300, unknown biological function",5.67
same,"Signal Fold Change AT5G38930, unknown biological function",0.16
same,Signal Fold Change AT5G39860 bHLH protein,4.44
same,Signal Fold Change AT5G41900 hydrolase,4.02
same,"Signal Fold Change AT5G44410, unknown biological function",2.89
same,"Signal Fold Change AT5G44580, unknown biological function",0.14
same,Signal Fold Change AT5G46890 lipid transfer protein,3.10
same,"Signal Fold Change AT5G47240, unknown biological function",8.92
same,Signal Fold Change AT5G47330 palmitoyl protein thioesterase protein,2.34
same,Signal Fold Change AT5G47450 major intrinsic protein,2.81
same,"Signal Fold Change AT5G47950, unknown biological function",4.37
same,Signal Fold Change AT5G48490 lipid transfer protein,3.78
same,"Signal Fold Change AT5G48900, unknown biological function",0.58
same,"Signal Fold Change AT5G49900, unknown biological function",3.82
same,Signal Fold Change AT5G50720 ABA-responsive protein (HVA22e),2.97
same,Signal Fold Change AT5G52120 SKP1 interacting partner 3 protein,11.57
same,"Signal Fold Change AT5G53190, unknown biological function",7.32
same,"Signal Fold Change AT5G53830, unknown biological function",0.30
same,"Signal Fold Change AT5G56320, cell wall organization and biogenesis, expansin (EXP14)",4.57
same,"Signal Fold Change AT5G58660, unknown biological function",0.40
same,Signal Fold Change AT5G59540 oxidoreductase,0.34
same,Signal Fold Change AT5G63450 cytochrome P450,16.44
same,Signal Fold Change AT5G63650 serine/threonine protein kinase,0.59
same,Signal Fold Change AT5G65970 seven transmembrane MLO protein,2.84
same,"Signal Fold Change AT5G66310, microtubule-based movement, kinesin motor protein",0.48
same,Signal Fold Change AT5G66400 dehydrin (RAB18),1.10
same,"Signal Fold Change AT5G66440, unknown biological function",0.32
same,Signal Fold Change AT5G66460 (1-4)-beta-mannan endohydrolase,0.52
same,"Signal Fold Change AT5G66780, unknown biological function",1.48
